Results on 14 compounds are retold here after patent US10723741B1, “DNA polymerase IIIC inhibitors and use thereof” (Acurx Pharmaceuticals, LLC, priority 2018, dated 2020).

Common to all, as to format: cell-based
The test system of test [1] is Staphylococcus aureus NRS384 (MRSA). Nature of the test: Broth microdilution MIC, S. aureus NRS384 (MRSA). Also on record: MIC NRS 384 (MRSA): unit not given here. The following applies: broth microdilution, 37° C., 20 hours; for MIC: Staphylococcus aureus, read-out: MIC NRS 384 (MRSA). The procedure, abridged:
(§1)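 Two-fold dilutions from 64 to 0.0625 μg/ml final, 1% DMSO, were inoculated at ~5.0×10^5 cfu/ml in the strain's test medium and kept 20 h at 37 °C in ambient atmosphere. Colonies were grown on MHA, with S. pneumoniae on blood agar under 5% CO2.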

Test [2] deals with Staphylococcus aureus ATCC 29213 (MSSA). Description: Broth microdilution MIC, S. aureus ATCC 29213 (MSSA). The following applies: broth microdilution, 37° C., 20 hours, read-out: MIC S. aureus ATCC 29213 (MSSA). In a few lines:
as §1

In test [3] the test system is Enterococcus faecalis ATCC 29212. Description: Broth microdilution MIC, E. faecalis ATCC 29212. The following applies: ATCC29212, broth microdilution, 37° C., 20 hours, read-out: MIC E. faecalis ATCC 29212. The procedure, abridged: as §1
In test [4] the test system is Enterococcus faecium ATCC 700221 (VRE). Nature of the test: Broth microdilution MIC, E. faecium ATCC 700221 (VRE). Further details: MIC E. faecium ATCC 700221 (VRE): unit: ug/mL. The following applies: broth microdilution, 37° C., 20 hours; for MIC: Enterococcus faecium, read-out: MIC E. faecium ATCC 700221 (VRE). In a few lines:
as §1
On the technique in general: Broth dilution looks for growth in wells or tubes with falling amounts of substance.

Test [5] relates to Streptococcus pneumoniae ATCC 49619. Nature of the test: Broth microdilution MIC, S. pneumoniae ATCC 49619. Conditions: ATCC49619, broth microdilution, 37° C., 20 hours, read-out: MIC S. pneumoniae ATCC 49619. In a few lines: as §1
For test [6], the system named is Bacillus subtilis ATCC 6633. Nature of the test: Broth microdilution MIC, B. subtilis ATCC 6633. The following applies: ATCC6633, broth microdilution, 37° C., 20 hours, read-out: MIC B. subtilis ATCC 6633. The procedure, abridged: as §1
Test [7] deals with Escherichia coli ATCC 25922. Description: Broth microdilution MIC, E. coli ATCC 25922 (MHIIB w & w/o 4 mM EDTA). The following applies: broth microdilution, 37° C., 20 hours; for MIC: Escherichia coli, ATCC25922, without EDTA, read-out: MIC E. coli ATCC 25922; for MIC E. coli ATCC 25922 + 4 mM EDTA: with 4 mM EDTA. In a few lines:
as §1

In brackets after ≈: the same amount, converted by molar mass. Read-outs that look alike come from different tables or passages of the source.

The MIC is the least concentration at which growth counts as inhibited. With `CC(C)n1cc2nc(NCc3ccc(Cl)c(Cl)c3)[nH]c(=O)c2n1` [Compound 132, 5-((3,4-Dichlorobenzyl)amino)-2-isopropyl-2H-pyrazolo[4,3-d]pyrimidin-7(6H)-one], the MIC in test [1] is over 64 µg/mL; in test [2], over 64 µg/mL; in test [3], over 64 µg/mL; in test [4] it was 16 µg/mL (≈ 45.4 µM); in test [5], 16 µg/mL (≈ 45.4 µM); in test [6] it was 8 µg/mL (≈ 22.7 µM). Besides, in test [7], the MIC was over 64 µg/mL. In addition, the “MIC E. coli ATCC 25922 + 4 mM EDTA” value in test [7] was over 64 µg/mL.

Regarding `CCOC(=O)C1(Cn2ncc3nc(NCc4ccc(Cl)c(Cl)c4)[nH]c(=O)c32)CCNCC1.Cl` [Compound 194, ethyl 4-((5-((3,4-dichlorobenzyl)amino)-7-oxo-6,7-dihydro-1H-pyrazolo[4,3-d]pyrimidin-1-yl)methyl)piperidine-4-carboxylate hydrochloride], the MIC is over 64 µg/mL in test [1]; 64 µg/mL in test [2]; 32 µg/mL in test [3]; 32 µg/mL in test [4]; 16 µg/mL in test [5]; 8 µg/mL in test [6]. The MIC in test [7] was over 64 µg/mL. Further, the “MIC E. coli ATCC 25922 + 4 mM EDTA” value in test [7] came to 64 µg/mL.

Turning to `CCCCOCCOCCOCCn1ncc2nc(NCc3ccc(Cl)c(Cl)c3)[nH]c(=O)c21` [Compound 95, 1-(2-(2-(2-Butoxyethoxy)ethoxy)ethyl)-5-((3,4-dichlorobenzyl)amino)-1H-pyrazolo[4,3-d]pyrimidin-7(6H)-one], the MIC in test [1] stood at 4 µg/mL (≈ 8.03 µM); in test [2] it was 4 µg/mL (≈ 8.03 µM); in test [3], 16 µg/mL (≈ 32.1 µM); in test [4] it was 4 µg/mL (≈ 8.03 µM); in test [5], 8 µg/mL (≈ 16.1 µM); in test [6], 2 µg/mL (≈ 4.01 µM). Also, the MIC in test [7] was over 64 µg/mL. In test [7], the “MIC E. coli ATCC 25922 + 4 mM EDTA” value was over 64 µg/mL.

With `O=C(c1cccnc1)N1CCC(n2nc(F)c3nc(NCc4ccc(Cl)c(Cl)c4)[nH]c(=O)c32)CC1` [Compound 317, 5-[(3,4-Dichlorophenyl)methylamino]-3-fluoro-1-[1-(pyridine-3-carbonyl)-4-piperidyl]-6H-pyrazolo[4,3-d]pyrimidin-7-one], the MIC is 4 µg/mL (≈ 7.75 µM) in test [1] (S. aureus NRS 384); 4 µg/mL (≈ 7.75 µM) in test [2]; 4 µg/mL (≈ 7.75 µM) in test [3]; 2 µg/mL (≈ 3.87 µM) in test [4]; 4 µg/mL (≈ 7.75 µM) in test [5]; 1 µg/mL (≈ 1.94 µM) in test [6]. For the same compound, the MIC in test [7] was over 64 µg/mL. Besides, the “MIC E. coli ATCC 25922 + 4 mM EDTA” value in test [7] was over 64 µg/mL.

Take `CP(C)(=O)CCCCn1nc(F)c2nc(NCc3ccc(F)c(F)c3)[nH]c(=O)c21` [Compound 314, 5-[(3,4-Difluorophenyl)methylamino]-1-(4-dimethylphosphorylbutyl)-3-fluoro-6H-pyrazolo[4,3-d]pyrimidin-7-one]: the MIC in test [1] (S. aureus NRS 384) is 32 µg/mL (≈ 74.9 µM); in test [2], 64 µg/mL (≈ 150 µM); in test [3], over 64 µg/mL; in test [4] it was 32 µg/mL (≈ 74.9 µM); in test [5] it was 16 µg/mL (≈ 37.4 µM); in test [6], 16 µg/mL (≈ 37.4 µM). In test [7], the MIC was over 64 µg/mL. Further, in test [7], the “MIC E. coli ATCC 25922 + 4 mM EDTA” value is over 64 µg/mL.

Regarding `Cl.O=c1[nH]c(NCc2ccc(Cl)c(Cl)c2)nc2cnn(CCOc3ccc(CO)nc3)c12` [Compound 174, 5-((3,4-dichlorobenzyl)amino)-1-(2-((6-(hydroxymethyl)pyridin-3-yl)oxy)ethyl)-1H-pyrazolo[4,3-d]pyrimidin-7(6H)-one hydrochloride], in test [1], the “MIC NRS 384 (MRSA)” value was 8/8. Besides, the MIC was 8 µg/mL in test [2]; 8 µg/mL in test [3]; 8 µg/mL in test [5]; 2 µg/mL in test [6]; over 64 µg/mL in test [7]. The “MIC E. faecium ATCC 700221 (VRE)” value in test [4] is reported as 2/2. For the same compound, the “MIC E. coli ATCC 25922 + 4 mM EDTA” value in test [7] was over 64 µg/mL.

With `Cl.O=c1[nH]c(NCc2ccc(Cl)c(Cl)c2)nc2cnn(CC3CCNC3)c12` (stereo not shown) [Compound 155, 5-((3,4-dichlorobenzyl)amino)-1-(pyrrolidin-3-ylmethyl)-1H-pyrazolo[4,3-d]pyrimidin-7(6H)-one hydrochloride], the MIC in test [1] was determined as 64 µg/mL; in test [2] it was 32 µg/mL; in test [3], 64 µg/mL; in test [4], 32 µg/mL; in test [5], 8 µg/mL; in test [6], 4 µg/mL. Besides, in test [7], the MIC is over 64 µg/mL. The “MIC E. coli ATCC 25922 + 4 mM EDTA” value in test [7] is over 64 µg/mL.

Regarding `CN(C)C(=O)c1nn(C)c2c(=O)[nH]c(NCc3ccc(Cl)c(Cl)c3)nc12` [Compound 43, 5-((3,4-Dichlorobenzyl)amino)-N,N, 1-trimethyl-7-oxo-6,7-dihydro-1H-pyrazolo[4,3-d]pyrimidine-3-carboxamide], the MIC in test [1] is over 64 µg/mL; in test [2] it was over 64 µg/mL; in test [3], over 64 µg/mL; in test [4], over 64 µg/mL; in test [5] it was 64 µg/mL (≈ 162 µM); in test [6], 64 µg/mL (≈ 162 µM). The MIC in test [7] was over 64 µg/mL. Besides, the “MIC E. coli ATCC 25922 + 4 mM EDTA” value in test [7] was over 64 µg/mL.

Consider `Cl.Cl.O=c1[nH]c(NCc2ccc(Cl)c(Cl)c2)nc2cnn(C3CCN(c4ccccn4)CC3)c12` [Compound 161, 5-((3,4-dichlorobenzyl)amino)-1-(1-(pyridin-2-yl)piperidin-4-yl)-1H-pyrazolo[4,3-d]pyrimidin-7(6H)-one dihydrochloride], for which the MIC in test [1] is 4 µg/mL; in test [2], 8 µg/mL; in test [3], over 64 µg/mL; in test [4] it was 2 µg/mL; in test [5] it was 16 µg/mL; in test [6], 2 µg/mL. The MIC in test [7] was over 64 µg/mL. The “MIC E. coli ATCC 25922 + 4 mM EDTA” value in test [7] was over 64 µg/mL.

For the compound `COCCOCCn1cc2nc(NCc3ccc(Cl)c(Cl)c3)[nH]c(=O)c2n1` [Compound 137, 5-((3,4-Dichlorobenzyl)amino)-2-(2-(2-methoxyethoxy)ethyl)-2H-pyrazolo[4,3-d]pyrimidin-7(6H)-one], the MIC in test [1] was 32 µg/mL (≈ 77.6 µM); in test [2] it was 32 µg/mL (≈ 77.6 µM); in test [3], 32 µg/mL (≈ 77.6 µM); in test [4], 16 µg/mL (≈ 38.8 µM); in test [5] it was 16 µg/mL (≈ 38.8 µM); in test [6], 16 µg/mL (≈ 38.8 µM). For the same compound, the MIC in test [7] was over 64 µg/mL. Further, the “MIC E. coli ATCC 25922 + 4 mM EDTA” value in test [7] was over 64 µg/mL.

As to `Cl.O=c1[nH]c(NCc2ccc(Cl)c(Cl)c2)nc2cnn(CCNC3=NCCN3)c12` [Compound 295, 5-((3,4-Dichlorobenzyl)amino)-1-(2-((4,5-dihydro-1H-imidazol-2-yl)amino)ethyl)-1H-pyrazolo[4,3-d]pyrimidin-7(6H)-one hydrochloride], the MIC in test [1] was 64 µg/mL; in test [2] it was over 64 µg/mL; in test [3] it was 64 µg/mL; in test [4] it was 64 µg/mL; in test [5] it was 32 µg/mL; in test [6], 32 µg/mL. Besides, the MIC in test [7] is over 64 µg/mL. The “MIC E. coli ATCC 25922 + 4 mM EDTA” value in test [7] was found to be 64 µg/mL.

`O=c1[nH]c(NCc2ccc(Cl)c(Cl)c2)nc2cnn(CC3CCCO3)c12` (stereo not shown) [Compound 102, 5-((3,4-Dichlorobenzyl)amino)-1-((tetrahydrofuran-2-yl)methyl)-1H-pyrazolo[4,3-d]pyrimidin-7(6H)-one]: in test [1], the “MIC NRS 384 (MRSA)” value is 4/4. The MIC in test [2] is 4 µg/mL (≈ 10.1 µM); in test [3], 4 µg/mL (≈ 10.1 µM); in test [5] it was 4 µg/mL (≈ 10.1 µM); in test [6] it was 1 µg/mL (≈ 2.54 µM); in test [7], over 64 µg/mL. Further, the “MIC E. faecium ATCC 700221 (VRE)” value in test [4] is reported as 2/4. Further, the “MIC E. coli ATCC 25922 + 4 mM EDTA” value in test [7] was over 64 µg/mL.

As to `Cn1ncc2nc(NCc3ccc4[nH]cnc4c3)[nH]c(=O)c21` [Compound 19, 5-(((1H-benzo[d]imidazol-5-yl)methyl)amino)-1-methyl-1H-pyrazolo[4,3-d]pyrimidin-7(6H)-one], the MIC in test [1], in test [2], in test [3], in test [4], in test [5] and in test [6] was over 64 µg/mL each time. In addition, the MIC in test [7] is over 64 µg/mL. Besides, the “MIC E. coli ATCC 25922 + 4 mM EDTA” value in test [7] is over 64 µg/mL.

As for `O=c1[nH]c(NCc2ccc(Cl)c(Cl)c2)nc2cnn(CCCCO)c12` [Compound 89, 5-((3,4-Dichlorobenzyl)amino)-1-(4-hydroxybutyl)-1H-pyrazolo[4,3-d]pyrimidin-7(6H)-one], the MIC in test [1] was found to be 2 µg/mL (≈ 5.23 µM); in test [2], 4 µg/mL (≈ 10.5 µM); in test [3] it was 4 µg/mL (≈ 10.5 µM); in test [4] it was 1 µg/mL (≈ 2.62 µM); in test [5], 2 µg/mL (≈ 5.23 µM); in test [6], 1 µg/mL (≈ 2.62 µM). Besides, the minimum inhibitory concentration (MIC) in test [7] is over 64 µg/mL. For the same compound, in test [7], the “MIC E. coli ATCC 25922 + 4 mM EDTA” value was found to be 64 µg/mL.
